Test results from patent publication US20200240995A1, “KDAC VARIANTS AND USES THEREOF” (Max-Planck-Gesellschaft Zur Forderung Der Wissenschaften …, priority 2017, published 2020).

Assays:
[1] = system: KDACs; test: FLuc K529ac activation by different KDACs; assay type: biochemical; conditions: purified FLuc K529ac
Procedure: FIG. 7: FLuc K529ac activation by different KDACs. Sirtuins were used at 20 μg/ml, while HDAC8 concentration was 10 mg/ml with tenfold higher FLuc K529ac. All error bars are standard deviations of triplicates.
It was tested whether purified FLuc K529ac can be used to quantify KDAC activity by incubating it with various different KDACs (FIG. 7). Prior to treatment with a KDAC the enzyme produced very little bioluminescence. After incubation with various KDACs the luminescence increased up to 130 fold.

[2] = target: T1, SirT2 (Homo sapiens, UniProt Q8IXJ6); test: FLuc K529ac-based KDAC assay, inhibition or activation of SirT2 deacetylation
T1 sequence (Q8IXJ6 56-356): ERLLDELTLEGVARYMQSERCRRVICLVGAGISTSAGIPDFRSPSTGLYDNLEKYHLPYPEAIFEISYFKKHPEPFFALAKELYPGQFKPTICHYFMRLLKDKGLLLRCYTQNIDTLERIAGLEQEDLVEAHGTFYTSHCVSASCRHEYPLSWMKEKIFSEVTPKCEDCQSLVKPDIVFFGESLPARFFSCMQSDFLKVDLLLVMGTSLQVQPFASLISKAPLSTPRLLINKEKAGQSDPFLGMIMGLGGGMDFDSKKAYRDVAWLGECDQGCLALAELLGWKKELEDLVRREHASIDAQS
Procedure: Typical endpoint deacetylation reactions contain: 30 nM Firefly Luciferase K529ac, 1 mM NAD^+, 1 μg/ml KDAC in 50 μl KDAC buffer (25 mM Tris/HCl pH 8.0, 137 mM NaCl, 2.7 mM KCl, 1 mM MgCl2, 1 mM DTT, 1 mg/ml BSA). The reactions are incubated for 1 h at 25° C. Luciferase activity is then assayed by addition of an equal volume of a mixture containing 40 mM Tricine, 200 μM EDTA, 7.4 mM MgSO4, 2 mM NaHCO3, 34 mM DTT, 0.5 mM ATP and 0.5 mM luciferin, pH 7.8^4. Luminescence is quantified using a FluoStar Omega Microplate Reader (BMG Labtech).
The continuous FLuc-based KDAC assay was set up by mixing all the components of the endpoint assay immediately. Usually NAD^+ was omitted initially and added from a 20-fold stock solution after 5 min preincubation to start the reaction. Luminescence was recorded every minute over a period of 30 min. KDAC activity was calculated from the slope of the linear phase of the reaction.
The effect of the compounds was analyzed at 10 μM on SirT2 activity using the FLuc K529ac assay in endpoint format.

Row | Molecule | Luminescence increase after incubation with various KDACs [1] | IC50 [2] [µM]
1 | FLuc K529ac: Firefly luciferase with N(ε)-acetyl-lysine in place of K529, reporter substrate for KDACs | up to 130 fold | 
2 | Oc1cc(O)cc(/C=C/c2ccc(O)c(O)c2)c1 [Compound 2, piceatannol] |  | 5.5
